Drawing on patent US20040224958A1, “Pyridopyrimidinone derivatives for treatment of neurodegenerative disease” (priority 2000, published 2004), this text covers IC50 for 18 compounds.

Assay [1] has as its target cdk2/cyclinE (Homo sapiens, UniProt P24941). Kind of assay: Cyclin-Dependent Kinase Assay cdk2/cyclinE. Particulars: cdk2/E IC50.
For assay [2], the target named is Cdk5/p25 (Homo sapiens, UniProt Q00535). The experiment in a line: Cyclin-Dependent Kinase 5 High Throughput Screening (cdk5-HTS) Assay. To be noted: high throughput screen. It is filed as biochemical. The procedure, abridged:
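IC50 determined from 33P incorporation into GST-RbCOOH captured on glutathione plates and read by scintillation counting. Reaction: 1.0 μg/mL Cdk5/p25, 20 μM [γ33P]ATP, pH 7.4 Tris buffer with MgCl2 and DTT, 30 min at room temperature, stopped with EDTA.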

Assay [3] has as its target cdk4/D (Homo sapiens, UniProt P11802). The experiment in a line: Cyclin-Dependent Kinase 4 (cdk4) Assay. Type of assay: biochemical. To be noted: read-out: cdk4/D IC50.
Assay [4] concerns the target cdc2/cyclinB (Homo sapiens, UniProt P06493). The experiment in a line: Cyclin-Dependent Kinase Assay cdc2/cyclinB.
Assay [5] has as its target cdk2/cyclinA (Homo sapiens, UniProt P24941). Kind of assay: Cyclin-Dependent Kinase Assay cdk2/cyclinA. To be noted: cdk2/A IC50.

Molecules are shown by their SMILES.

cdc2/cyclinB, sequence (P06493 whole entry): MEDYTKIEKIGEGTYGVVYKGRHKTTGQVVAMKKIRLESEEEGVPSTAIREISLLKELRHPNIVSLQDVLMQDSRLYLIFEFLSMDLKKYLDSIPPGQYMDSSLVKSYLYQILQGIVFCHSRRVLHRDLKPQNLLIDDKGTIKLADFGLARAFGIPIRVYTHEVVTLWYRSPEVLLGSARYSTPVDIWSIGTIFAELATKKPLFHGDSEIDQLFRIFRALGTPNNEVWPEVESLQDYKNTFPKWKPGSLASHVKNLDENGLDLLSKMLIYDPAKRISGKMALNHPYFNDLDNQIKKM
cdc2/cyclinB, sequence (P14635 whole entry, further chain): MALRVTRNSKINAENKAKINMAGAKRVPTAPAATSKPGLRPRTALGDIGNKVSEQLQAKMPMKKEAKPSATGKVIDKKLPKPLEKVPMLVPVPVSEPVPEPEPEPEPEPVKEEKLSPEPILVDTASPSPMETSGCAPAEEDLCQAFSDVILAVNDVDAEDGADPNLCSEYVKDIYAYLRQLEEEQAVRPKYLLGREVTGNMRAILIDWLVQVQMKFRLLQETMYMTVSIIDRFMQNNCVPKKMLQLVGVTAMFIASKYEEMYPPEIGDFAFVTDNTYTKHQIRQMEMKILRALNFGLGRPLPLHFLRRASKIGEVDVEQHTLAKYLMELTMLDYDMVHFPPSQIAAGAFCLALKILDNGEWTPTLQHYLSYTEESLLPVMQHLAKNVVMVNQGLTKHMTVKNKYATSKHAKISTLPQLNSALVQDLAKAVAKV
cdk4/D, sequence (P11802 whole entry): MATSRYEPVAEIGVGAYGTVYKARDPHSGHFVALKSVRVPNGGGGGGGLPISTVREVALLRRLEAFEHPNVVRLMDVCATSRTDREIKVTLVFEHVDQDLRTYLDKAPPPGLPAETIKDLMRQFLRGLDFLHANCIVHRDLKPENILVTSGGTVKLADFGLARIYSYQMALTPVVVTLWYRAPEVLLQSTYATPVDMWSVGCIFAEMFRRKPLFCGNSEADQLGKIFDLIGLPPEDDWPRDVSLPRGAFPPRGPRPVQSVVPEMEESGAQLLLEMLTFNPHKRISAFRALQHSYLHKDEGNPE
cdk4/D, sequence (P24385 whole entry, further chain): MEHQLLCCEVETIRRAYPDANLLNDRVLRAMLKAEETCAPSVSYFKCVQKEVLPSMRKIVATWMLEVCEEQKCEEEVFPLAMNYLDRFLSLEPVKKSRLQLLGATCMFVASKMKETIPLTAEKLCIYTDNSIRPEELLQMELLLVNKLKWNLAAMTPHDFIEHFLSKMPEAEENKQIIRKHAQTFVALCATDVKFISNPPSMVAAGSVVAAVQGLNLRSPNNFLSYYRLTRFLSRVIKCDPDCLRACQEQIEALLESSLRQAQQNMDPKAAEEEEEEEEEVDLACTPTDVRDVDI

`CCC(CC)n1c(=O)ccc2cnc(Nc3cc(Cl)c(O)c(Cl)c3)nc21` [Example 497, 2-(3,5-Dichloro-4-hydroxy-phenylamino)-8-(1-ethyl-propyl)-8H-pyrido[2,3-d]pyrimidin-7-one]: the IC50 in assay [1] came out at 80 nM; in assay [2], 55.5 nM; in assay [3], 480 nM; in assay [4], 46.5 nM; in assay [5] it was 160 nM.

On to `CCC(CC)n1c(=O)ccc2cnc(Nc3cccc([N+](=O)[O-])c3)nc21` [Example 498, 8-(1-Ethyl-propyl)-2-(3-nitro-phenylamino)-8H-pyrido[2,3-d]pyrimidin-7-one], for which the IC50 worked out at 47 nM in assay [1]; 68 nM in assay [2]; 170 nM in assay [3]; 49.5 nM in assay [4]; 200 nM in assay [5].

Consider `CCC(CC)n1c(=O)ccc2cnc(Nc3ccc(OC)c(OC)c3)nc21` [Example 499, 2-(3,4-Dimethoxy-phenylamino)-8-(1-ethyl-propyl)-8H-pyrido[2,3-d]pyrimidin-7-one], for which the IC50 in assay [1] worked out at 46.3 nM; in assay [2], 12.5 nM; in assay [3] it was 192 nM; in assay [4], 46 nM; in assay [5], 115 nM.

For the compound `CCC(CC)n1c(=O)ccc2cnc(Nc3ccc(Cl)c(C)c3)nc21` [Example 500, 2-(4-Chloro-3-methyl-phenylamino)-8-(1-ethyl-propyl)-8H-pyrido[2,3-d]pyrimidin-7-one], the IC50 in assay [1] was 74 nM; in assay [2] it was 16 nM; in assay [3], 98 nM; in assay [4], 110 nM; in assay [5], 340 nM.

`CCC(CC)n1c(=O)ccc2cnc(Nc3ccc(F)c(C(F)(F)F)c3)nc21` [Example 502, 8-(1-Ethyl-propyl)-2-(4-fluoro-3-trifluoromethyl-phenylamino)-8H-pyrido[2,3-d]pyrimidin-7-one]: the IC50 was determined as 68 nM in assay [1]; 21 nM in assay [2]; 350 nM in assay [3]; 100 nM in assay [4]; 360 nM in assay [5].

For the compound `CCC(CC)n1c(=O)ccc2cnc(Nc3ccc(OC)c(F)c3)nc21` [Example 505, 8-(1-Ethyl-propyl)-2-(3-fluoro-4-methoxy-phenylamino)-8H-pyrido[2,3-d]pyrimidin-7-one], the IC50 worked out at 67 nM in assay [1]; 14 nM in assay [2]; 34 nM in assay [3]; 73 nM in assay [4]; 220 nM in assay [5].

In the case of `CCC(CC)n1c(=O)ccc2cnc(Nc3ccc(C#N)c(NC(C)=O)c3)nc21` [Example 506, N-{2-Cyano-5-[8-(-ethyl-propyl)-7-oxo-7,8-dihydro-pyrido[2,3-d]pyrimidin-2-ylamino]-phenyl}-acetamide], the IC50 in assay [1] stood at 93 nM; in assay [2], 44 nM; in assay [3], 36 nM; in assay [4] it was 110 nM; in assay [5] it was 400 nM.

Regarding `CCC(CC)n1c(=O)ccc2cnc(Nc3ccc(Br)c(Cl)c3)nc21` [Example 507, 2-(4-Bromo-3-chloro-phenylamino)-8-(1-ethyl-propyl)-8H-pyrido[2,3-d]pyrimidin-7-one], the IC50 in assay [1] was found to be 310 nM; in assay [2], 64 nM; in assay [3] it was 150 nM; in assay [4], 330 nM; in assay [5] it was 1300 nM.

Take `CCC(CC)n1c(=O)ccc2cnc(Nc3cc(OC)cc(C(F)(F)F)c3)nc21` [Example 508, 8-(1-Ethyl-propyl)-2-(3-methoxy-5-trifluoromethyl-phenylamino)-8H-pyrido[2,3-d]pyrimidin-7-one]: the IC50 in assay [1] turned out to be 280 nM; in assay [2], 70 nM; in assay [3] it was 140 nM; in assay [4], 230 nM; in assay [5] it was 2100 nM.

As for `CCC(CC)n1c(=O)ccc2cnc(Nc3ccc(F)c(F)c3)nc21` [Example 509, 2-(3,4-Difluoro-phenylamino)-8-(I-ethyl-propyl)-8H-pyrido[2,3-d]pyrimidin-7-one], the IC50 is 64 nM in assay [1]; 26 nM in assay [2]; 98 nM in assay [3]; 190 nM in assay [4]; 240 nM in assay [5].

For the compound `CCC(CC)n1c(=O)ccc2cnc(Nc3cc(F)cc(F)c3)nc21` [Example 510, 2-(3,5-Difluoro-phenylamino)-8-(1-ethyl-propyl)-8H-pyrido[2,3-d]pyrimidin-7-one], the IC50 in assay [1] came to 210 nM; in assay [2], 120 nM; in assay [3] it was 270 nM; in assay [4], 180 nM; in assay [5] it was 310 nM.

Take `CCC(CC)n1c(=O)ccc2cnc(Nc3ccc(Cl)c(Cl)c3)nc21` [Example 511, 2-(3,4-Dichloro-phenylamino)-8-(1-ethyl-propyl)-8H-pyrido[2,3-d]pyrimidin-7-one]: the IC50 in assay [1] was determined as 160 nM; in assay [2] it was 50 nM; in assay [3] it was 220 nM; in assay [4] it was 140 nM; in assay [5] it was 290 nM.

For `CCC(CC)n1c(=O)ccc2cnc(Nc3cccc(O)c3)nc21` [Example 512, 8-(1-Ethyl-propyl)-2-(3-hydroxy-phenylamino)-8H-pyrido[2,3-d]pyrimidin-7-one], the IC50 in assay [1] was found to be 56 nM; in assay [2], 83 nM; in assay [3], 2200 nM; in assay [4] it was 39 nM; in assay [5] it was 120 nM.

Regarding `CCC(CC)n1c(=O)ccc2cnc(Nc3ccc(NC(C)=O)c(C)c3)nc21` [Example 513, N-{4-[8-(1-Ethyl-propyl)-7-oxo-7,8-dihydro-pyrido[2,3-d]pyrimidin-2-ylamino]-2-methyl-phenyl}-acetamide], the IC50 came out at 330 nM in assay [1]; 110 nM in assay [2]; 830 nM in assay [3]; 160 nM in assay [4]; 630 nM in assay [5].

With `CCC(CC)n1c(=O)ccc2cnc(Nc3ccc(OC(F)(F)F)cc3)nc21` [Example 515, 8-(1-Ethyl-propyl)-2-(4-trifluoromethoxy-phenylamino)-8H-pyrido[2,3-d]pyrimidin-7-one], the IC50 in assay [1] worked out at 230 nM; in assay [2], 71 nM; in assay [3], 200 nM; in assay [4], 480 nM; in assay [5] it was 670 nM.

As to `CCC(CC)n1c(=O)ccc2cnc(Nc3ccc4[nH]c5ccccc5c4c3)nc21` [Example 516, 2-(9H-Carbazol-3-ylamino)-8-(I-ethyl-propyl)-8H-pyrido[2,3-d]pyrimidin-7-one], the IC50 in assay [1] was 95 nM; in assay [2], 33 nM; in assay [3] it was 28 nM; in assay [4] it was 62 nM; in assay [5], 280 nM.

On to `CCC(CC)n1c(=O)ccc2cnc(Nc3ccc4oc(=O)[nH]c4c3)nc21` [Example 517, 8-(1-Ethyl-propyl)-2-(2-oxo-2,3-dihydro-benzoxazol-5-ylamino)-8H-pyrido[2,3-d]pyrimidin-7-one], for which the IC50 is 29 nM in assay [1]; 18 nM in assay [2]; 130 nM in assay [3]; 62 nM in assay [4]; 56 nM in assay [5].

Turning to `CCC(CC)n1c(=O)ccc2cnc(Nc3ccc4cn[nH]c4c3)nc21` [Example 518, 8-(1-Ethyl-propyl)-2-(1H-indazol-6-ylamino)-8H-pyrido[2,3-d]pyrimidin-7-one], the IC50 was 53 nM in assay [1]; 17.5 nM in assay [2]; 365 nM in assay [3]; 31.5 nM in assay [4]; 57.5 nM in assay [5].
